{"source": "patent US9273057B2", "about": "(Bristol-Myers Squibb Company, priority 2012, dated 2016)", "target": "CK2A1 (CK2α/β) (Homo sapiens, UniProt P68400)", "sequence (P68400 whole entry, species assumed)": "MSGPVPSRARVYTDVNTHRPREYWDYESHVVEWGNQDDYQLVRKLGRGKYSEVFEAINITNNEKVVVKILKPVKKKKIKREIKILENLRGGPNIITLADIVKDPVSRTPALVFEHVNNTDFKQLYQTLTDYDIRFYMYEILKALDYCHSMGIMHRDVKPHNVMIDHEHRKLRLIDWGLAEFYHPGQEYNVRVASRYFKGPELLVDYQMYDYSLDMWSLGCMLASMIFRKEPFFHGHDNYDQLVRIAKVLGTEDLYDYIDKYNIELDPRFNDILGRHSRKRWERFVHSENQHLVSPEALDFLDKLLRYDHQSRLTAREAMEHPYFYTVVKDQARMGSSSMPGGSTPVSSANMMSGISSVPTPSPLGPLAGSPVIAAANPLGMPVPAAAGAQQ", "sequence (P67870 whole entry partner, species assumed)": "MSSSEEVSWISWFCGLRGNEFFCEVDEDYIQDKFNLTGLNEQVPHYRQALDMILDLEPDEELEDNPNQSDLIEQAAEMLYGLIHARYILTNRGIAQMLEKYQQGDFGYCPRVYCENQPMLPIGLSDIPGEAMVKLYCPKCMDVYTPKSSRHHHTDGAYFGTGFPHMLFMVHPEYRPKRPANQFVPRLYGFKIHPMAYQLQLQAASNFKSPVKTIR", "assay": "CK2 kinase assay, CK2A1 (CK2α/β)", "format": "biochemical", "conditions": "Table A; read-out: CK2A1 (CK2α/β) (IC50)", "data": [{"smiles": "CCNc1nc(Nc2cc(C#N)cc(N3CC[C@@H](NC(=O)OC)[C@H](OC(=O)[C@@H](N)C(C)C)C3)c2Cl)nn2c(C#N)cnc12", "note": "[Example 346, (S)-(3R,4R)-1-(2-chloro-5-cyano-3-((7-cyano-4-(ethylamino)imidazo[2,1-f][1,2,4]triazin-2-yl)amino)phenyl)-4-((methoxycarbonyl)amino)piperidin-3-yl 2-amino-3-methylbutanoate]", "values": [{"measurement": "IC50", "result": 2.03, "unit": "nM"}]}, {"smiles": "CCNc1nc(Nc2cc(C#N)cc(C3CCN(C4COC4)CC3)c2Cl)nn2c(C#N)cnc12", "note": "[Example 349, 2-((2-chloro-5-cyano-3-(1-(oxetan-3-yl)piperidin-4-yl)phenyl)amino)-4-(ethylamino)imidazo[2,1-f][1,2,4]triazine-7-carbonitrile]", "values": [{"measurement": "IC50", "result": 2.75, "unit": "nM"}]}, {"smiles": "[2H]C1(N2CCC(c3cc(C#N)cc(Nc4nc(NCC)c5ncc(C#N)n5n4)c3Cl)CC2)COC1", "note": "[Example 350, 2-((2-chloro-5-cyano-3-(1-(3-~2~H)-3-oxetanyl-4-piperidinyl)phenyl)amino)-4-(ethylamino)imidazo[2,1-f][1,2,4]triazine-7-carbonitrile]", "values": [{"measurement": "IC50", "result": 1.74, "unit": "nM"}]}, {"smiles": "CCNc1nc(Nc2cc(C#N)cc(C3CCN(C)CC3)c2Cl)nn2c(C#N)cnc12", "note": "[Example 351, 2-((2-chloro-5-cyano-3-(1-methyl-4-piperidinyl)phenyl)amino)-4-(ethylamino)imidazo[2,1-f][1,2,4]triazine-7-carbonitrile]", "values": [{"measurement": "IC50", "result": 0.88, "unit": "nM"}]}, {"smiles": "CCNc1nc(Nc2cc(C#N)cc(C3CCN(CCOC)CC3)c2Cl)nn2c(C#N)cnc12", "note": "[Example 352, 2-((2-chloro-5-cyano-3-(1-(2-methoxyethyl)-4-piperidinyl)phenyl)amino)-4-(ethylamino)imidazo[2,1-f] [1,2,4]triazine-7-carbonitrile]", "values": [{"measurement": "IC50", "result": 2.73, "unit": "nM"}]}, {"smiles": "CCNc1nc(Nc2cc(C#N)cc(C3CCN(CC(C)(C)O)CC3)c2Cl)nn2c(C#N)cnc12", "note": "[Example 353, 2-((2-chloro-5-cyano-3-(1-(2-hydroxy-2-methylpropyl)-4-piperidinyl)phenyl)amino)-4-(ethylamino)imidazo[2,1-f][1,2,4]triazine-7-carbonitrile]", "values": [{"measurement": "IC50", "result": 0.87, "unit": "nM"}]}, {"smiles": "CCNc1nc(Nc2cc(C#N)cc(C3CCN(C(C)=O)CC3)c2Cl)nn2c(C#N)cnc12", "note": "[Example 354, 2-((3-(1-acetyl-4-piperidinyl)-2-chloro-5-cyanophenyl)amino)-4-(ethylamino)imidazo[2,1-f] [1,2,4]triazine-7-carbonitrile]", "values": [{"measurement": "IC50", "result": 0.52, "unit": "nM"}]}, {"smiles": "CCNc1nc(Nc2cc(C#N)cc(C3CCN(C4CN(S(C)(=O)=O)C4)CC3)c2Cl)nn2c(C#N)cnc12", "note": "[Example 355, 2-((2-chloro-5-cyano-3-(1-(1-(methylsulfonyl)-3-azetidinyl)-4-piperidinyl)phenyl)amino)-4-(ethylamino)imidazo[2,1-f][1,2,4]triazine-7-carbonitrile]", "values": [{"measurement": "IC50", "result": 5.23, "unit": "nM"}]}, {"smiles": "CCNc1nc(Nc2cc(C#N)cc(C3CCN(C4CN(C(C)=O)C4)CC3)c2Cl)nn2c(C#N)cnc12", "note": "[Example 356, 2-((3-(1-(1-acetyl-3-azetidinyl)-4-piperidinyl)-2-chloro-5-cyanophenyl)amino)-4-(ethylamino)imidazo [2,1-f][1,2,4]triazine-7-carbonitrile]", "values": [{"measurement": "IC50", "result": 0.72, "unit": "nM"}]}, {"smiles": "CN1CCC(N2CC(c3cc(C#N)cc(Nc4nc(NC5CC5)c5ncc(C#N)n5n4)c3Cl)C2)CC1", "note": "[Example 357, 2-((2-chloro-5-cyano-3-(1-(1-methylpiperidin-4-yl)azetidin-3-yl)phenyl)amino)-4-(cyclopropylamino)imidazo[2,1-f][1,2,4]triazine-7-carbonitrile]", "values": [{"measurement": "IC50", "result": 1.68, "unit": "nM"}]}, {"smiles": "N#Cc1cc(Nc2nc(NC3CC3)c3ncc(C#N)n3n2)c(Cl)c(C2CN(C3COC3)C2)c1", "note": "[Example 358, 2-((2-chloro-5-cyano-3-(1-(oxetan-3-yl)azetidin-3-yl)phenyl)amino)-4-(cyclopropylamino)imidazo[2,1-f][1,2,4]triazine-7-carbonitrile]", "values": [{"measurement": "IC50", "result": 0.87, "unit": "nM"}]}, {"smiles": "CCNc1nc(Nc2cc(C#N)cc(C3CN(C4COC4)C3)c2Cl)nn2c(C#N)cnc12", "note": "[Example 359, 2-((2-chloro-5-cyano-3-(1-(oxetan-3-yl)azetidin-3-yl)phenyl)amino)-4-(ethylamino)imidazo[2,1-f][1,2,4]triazine-7-carbonitrile]", "values": [{"measurement": "IC50", "result": 1.58, "unit": "nM"}]}, {"smiles": "CCNc1nc(Nc2cc(C#N)cc(N3CC(N4CCN(C)CC4)C3)c2Cl)nn2c(C#N)cnc12", "note": "[Example 360, 2-((2-chloro-5-cyano-3-(3-(4-methylpiperazin-1-yl)azetidin-1-yl)phenyl)amino)-4-(ethylamino)imidazo[2,1-f][1,2,4]triazine-7-carbonitrile]", "values": [{"measurement": "IC50", "result": 0.73, "unit": "nM"}]}, {"smiles": "CCNc1nc(Nc2cc(C#N)cc(N3CCC(NC4COC4)CC3)c2Cl)nn2c(C#N)cnc12", "note": "[Example 363, 2-((2-chloro-5-cyano-3-(4-(oxetan-3-ylamino)piperidin-1-yl)phenyl)amino)-4-(ethylamino)imidazo[2,1-f][1,2,4]triazine-7-carbonitrile]", "values": [{"measurement": "IC50", "result": 0.78, "unit": "nM"}]}, {"smiles": "CCNc1nc(Nc2cc(C#N)cc(N3CCC(N(C)C4COC4)CC3)c2Cl)nn2c(C#N)cnc12", "note": "[Example 365, 2-((2-chloro-5-cyano-3-(4-(methyl(oxetan-3-yl)amino)piperidin-1-yl)phenyl)amino)-4-(ethylamino)imidazo[2,1-f][1,2,4]triazine-7-carbonitrile]", "values": [{"measurement": "IC50", "result": 3.28, "unit": "nM"}]}, {"smiles": "CCNc1nc(Nc2cc(C#N)cc(N3CCC(N(C(=O)OC)C4COC4)CC3)c2Cl)nn2c(C#N)cnc12", "note": "[Example 366, methyl (1-(2-chloro-5-cyano-3-((7-cyano-4-(ethylamino)imidazo[2,1-f][1,2,4]triazin-2-yl)amino)phenyl)piperidin-4-yl)(oxetan-3-yl)carbamate]", "values": [{"measurement": "IC50", "result": 0.78, "unit": "nM"}]}, {"smiles": "CCNc1nc(Nc2cc(C#N)cc(C3CNC3)c2Cl)nn2c(C#N)cnc12", "note": "[Example 367, 2-((3-(azetidin-3-yl)-2-chloro-5-cyanophenyl)amino)-4-(ethylamino)imidazo[2,1-f][1,2,4]triazine-7-carbonitrile]", "values": [{"measurement": "IC50", "result": 1.17, "unit": "nM"}]}, {"smiles": "CCNc1nc(Nc2cc(C#N)cc(C3CN(C[C@H](C)O)C3)c2Cl)nn2c(C#N)cnc12", "note": "[Example 368, (S)-2-((2-chloro-5-cyano-3-(1-(2-hydroxypropyl)azetidin-3-yl)phenyl)amino)-4-(ethylamino)imidazo[2,1-f][1,2,4]triazine-7-carbonitrile]", "values": [{"measurement": "IC50", "result": 3.62, "unit": "nM"}]}, {"smiles": "CCNc1nc(Nc2cc(C#N)cc(C3CN(C(=O)CC#N)C3)c2Cl)nn2c(C#N)cnc12", "note": "[Example 369, 2-((2-chloro-5-cyano-3-(1-(2-cyanoacetyl)azetidin-3-yl)phenyl)amino)-4-(ethylamino)imidazo[2,1-f][1,2,4]triazine-7-carbonitrile]", "values": [{"measurement": "IC50", "result": 1.58, "unit": "nM"}]}, {"smiles": "CCNc1nc(Nc2cc(C#N)cc(N3CC[C@H]4NC(=O)O[C@@H]4C3)c2Cl)nn2c(C#N)cnc12", "note": "[Example 375, 2-((2-chloro-5-cyano-3-((3aR,7aR)-2-oxohexahydrooxazolo[5,4-c]pyridin-5(2H)-yl)phenyl)amino)-4-(ethylamino)imidazo[2,1-f][1,2,4]triazine-7-carbonitrile]", "values": [{"measurement": "IC50", "result": 0.43, "unit": "nM"}]}, {"smiles": "CCNc1nc(Nc2cc(C#N)cc(N3CC[C@@H](NC(=O)OCCOCCOCCOCCOCCOCCOC)[C@H](O)C3)c2Cl)nn2c(C#N)cnc12", "note": "[Example 376, 2,5,8,11,14,17-hexaoxanonadecan-19-yl((3R,4R)-1-(2-chloro-5-cyano-3-((7-cyano-4-(ethylamino)imidazo[2,1-f][1,2,4]triazin-2-yl)amino)phenyl)-3-hydroxypiperidin-4-yl)carbamate]", "values": [{"measurement": "IC50", "result": 0.83, "unit": "nM"}]}]}
